# From US20070249590A1, “Substituted indolo[2,3-a]pyrrolo[3,4-c]carbazole compounds useful in treating kinase disorders” (priority 2005, published 2007)
# Target: T1, JAK3 (JH1 and JH2 domain) (Homo sapiens, UniProt P52333)
# T1 sequence (P52333 521-1111 limits assumed): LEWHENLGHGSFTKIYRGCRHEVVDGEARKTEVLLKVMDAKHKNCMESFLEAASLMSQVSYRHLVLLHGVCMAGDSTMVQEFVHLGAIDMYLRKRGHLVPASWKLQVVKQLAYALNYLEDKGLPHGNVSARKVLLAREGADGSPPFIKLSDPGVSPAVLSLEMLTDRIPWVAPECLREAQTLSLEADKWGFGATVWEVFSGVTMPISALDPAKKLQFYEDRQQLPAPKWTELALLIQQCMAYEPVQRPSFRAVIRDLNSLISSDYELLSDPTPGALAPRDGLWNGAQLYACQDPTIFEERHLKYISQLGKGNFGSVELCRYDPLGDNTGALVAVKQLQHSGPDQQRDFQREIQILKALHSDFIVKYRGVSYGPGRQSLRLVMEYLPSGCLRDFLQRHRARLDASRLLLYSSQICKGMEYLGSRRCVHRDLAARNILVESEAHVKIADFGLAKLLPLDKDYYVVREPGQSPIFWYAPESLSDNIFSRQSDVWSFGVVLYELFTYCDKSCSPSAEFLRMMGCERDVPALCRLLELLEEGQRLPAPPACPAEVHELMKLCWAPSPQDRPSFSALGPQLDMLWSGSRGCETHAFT
# Experiment: JAK3 Kinase Assay (ELISA of peptide substrate phosphorylation)
# Format: biochemical
# Settings: purified JAK3 enzyme, 10 μM ATP, biotinylated peptide substrate, 1 hour at room temperature
# Method: JAK3 enzyme activity was assayed relative to enzyme phosphorylation using the method described herein.
# Sf21 cells derived from the ovarian tissue of the fall armyworm Spodotera frugiperda were obtained from Pharmingen (San Diego, Calif.) and maintained at a temperature of about 26-28° C. in 1 l Bellco spinner flasks at 60-90 rpm. Cell viability was maintained at 95-100%, as determined by a tryptan blue dye exclusion test.
# Sf21 cells were infected with a baculovirus expression vector for JAK3 (JH1 and JH2 domain). After 48 hours of infection, cells were harvested and lysed in Tris-saline (pH 7.6) containing 2% NP-40 and a combination of protease inhibitors (Aprotinin, Pepstatin A, Pefabloc, E-64, Leupeptin, and Benzamidine) on ice for 45 minutes.
# The JAK3 enzyme was purified from the lysate using glutathione sepharose beads and the enzyme activity was assessed in Costar flat bottom EIA/RIA 96 well plates. The plates were coated with Neutravidin (110 μL) (Pierce Neutravidin Biotin-binding Protein 31000; 1 mg/mL 1:100) diluted in PBS for 1 hour at room temperature. The plates were washed with PBS-0.1% Tween (3 times) to remove unbound Neutravidin, then 1% BSA (150 NIL) in PBS was added to each well to block non-specific binding. The plates was incubated for 1 hour at room temperature and stored at −80° C. until use.
# JAK3 enzyme solution (48 μL) in 1.25×TK buffer (62.5 mM HEPES pH 7.5, 12.5 mM MgCl2) containing DTT (42 mM) (Sigma, St. Louis, Mo.) was added to each well of a polypropylene 96 well plate.
# A test compound (5 μL) diluted in DMSO (48 μL) and biotinylated peptide enzyme substrate (5 μg diluted in TK buffer containing 10 μM ATP) were added to each well using the double dispense feature of a multichannel electronic biohit. Control wells received DMSO vehicle (5 μL). The contents of the wells were mixed for approximately 8 seconds using a multitube vortexer and the reaction mixture was incubated for 1 hour at room temperature.
# After incubation, an aliquot of reaction mixture (90 μL) was transferred into a washed Neutravidin coated plate. The plate was incubated for 15 minutes at room temperature and washed 3 times with PBS-T. PY99 anti-phosphotyrosine antibody (100 μL/well) (Santa Cruz #sc-7020HRP diluted 1:6000 in 1× antibody buffer) was added into each well and the plate was incubated for 40 minutes at room temperature. The antibody buffer contained 10% BSA, 100 mM Tris (pH 7.5), 1M NaCl and 1% Tween 20. The plate washed 3 times with PBS-T, then TMB (100 pLXSigma, St. Louis, Mo.) was added to the each well. The plate was incubated for another 40 mins at room temperature in the dark. The reaction was stopped by the addition of 1M H2SO4 (50 μL/well) and the optical density was read at 450/650 nm.
# Test compounds were assayed in triplicate at 16 concentrations at half-log dilutions starting at 200 μM. A maximum and minimum signal for the assay was determined on each plate. The percent inhibition of a test compound was calculated according to the formula [formula]
# For a series of test concentrations, the IC50 was derived by graphing percent inhibition against the log of the concentrations tested for a given compound. For those compounds without an IC50, the percent inhibition results are shown at a test concentration of 1 μM.
row,IC50 [µM],SMILES
1,0.916,"O=C1NC(=O)c2c1c1c3ccccc3n3c1c1c2c2ccccc2n1CC(OC(=O)N1CCN(CCc2ccccc2)CC1)C(O)C3 (stereo not drawn) [Cpd 110, 12,13-(2-{[4-(2-phenyl-ethyl)piperazin-1-yl]carbamoyloxy}-3-hydroxy-butan-1,4-yl)-12,13-dihydro-5,7-dioxo-6H-indolo[2,3-a]pyrrolo[3,4-c]carbazole]"
2,0.097,"O=C(NCCN1CCCC1)OC1Cn2c3ccccc3c3c4c(c5c6ccccc6n(c5c32)CC1O)C(=O)NC4=O (stereo not drawn) [Cpd 92, 12,13-{2-[(2-pyrrolidin-1-yl-ethyl)carbamoyloxy]-3-hydroxy-butan-1,4-yl}-12,13-dihydro-5,7-dioxo-6H-indolo[2,3-a]pyrrolo[3,4-c]carbazole]"
3,> 0.4,"CC(C)(C)NC(=O)OC1CCn2c3ccccc3c3c4c(c5c6ccccc6n(c5c32)C1)C(=O)NC4=O (stereo not drawn) [Cpd 40, 12,13-[2-(t-butylcarbamoyloxy)-butan-1,4-yl]-12,13-dihydro-5,7-dioxo-6H-indolo[2,3-a]pyrrolo[3,4-c]carbazole]"
4,0.069,"O=C1NCc2c1c1c3ccccc3n3c1c1c2c2ccccc2n1CCC(OC(=O)N1CCOCC1)CC3 (stereo not drawn) [Cpd 185, 12,13-[3-(morpholin-4-yl-carbonyloxy)-pentan-1,5-yl]-6,7,12,13-tetrahydro-5-oxo-5H-indolo[2,3-a]pyrrolo[3,4-c]carbazole]"
5,0.496,"O=C1NC(=O)c2c1c1c3ccccc3n3c1c1c2c2ccccc2n1CC(OC(=O)N1CCN(C(c2ccccc2)c2ccccc2)CC1)CC3 (stereo not drawn) [Cpd 62, 12,13-{2-[(4-benzhydryl-piperazin-1-yl)carbonyloxy]-butan-1,4-yl}-12,13-dihydro-5,7-dioxo-6H-indolo[2,3-a]pyrrolo[3,4-c]carbazole]"
6,> 0.2,"CC(C)NC(=O)OCC1(O)Cn2c3ccccc3c3c4c(c5c6ccccc6n(c5c32)C1)C(=O)NC4 (stereo not drawn) [Cpd 135, 12,13-[2-hydroxy-2-(isopropyl-carbamoyloxymethyl)-propan-1,3-yl]-6,7,12,13-tetrahydro-5-oxo-5H-indolo[2,3-a]pyrrolo[3,4-c]carbazole]"
7,0.098,"O=C1NC(=O)c2c1c1c3ccccc3n3c1c1c2c2ccccc2n1CC(OC(=O)N1CCN(c2ccc(O)cc2)CC1)CC3 (stereo not drawn) [Cpd 58, 12,13-(2-{[4-(4-hydroxy-phenyl)piperazin-1-yl]carbonyloxy}-butan-1,4-yl)-12,13-dihydro-5,7-dioxo-6H-indolo[2,3-a]pyrrolo[3,4-c]carbazole]"
8,0.015,"NS(=O)(=O)c1ccc(CCNC(=O)OC2Cn3c4ccccc4c4c5c(c6c7ccccc7n(c6c43)CC2O)C(=O)NC5=O)cc1 (stereo not drawn) [Cpd 105, 12,13-(2-{[2-(4-sulfonylamino-phenyl)ethyl]carbamoyloxy}-3-hydroxy-butan-1,4-yl)-12,13-dihydro-5,7-dioxo-6H-indolo[2,3-a]pyrrolo[3,4-c]carbazole]"
9,0.123,"COCCNC(=O)OCC1(O)Cn2c3ccccc3c3c4c(c5c6ccccc6n(c5c32)C1)C(=O)NC4 (stereo not drawn) [Cpd 136, 12,13-{2-hydroxy-2-[(2-methoxy-ethyl)carbamoyloxymethyl]-propan-1,3-yl}-6,7,12,13-tetrahydro-5-oxo-5H-indolo[2,3-a]pyrrolo[3,4-c]carbazole]"
10,0.014,"O=C1NCc2c1c1c3cc(/C=C/Cn4ccnc4)ccc3n3c1c1c2c2ccccc2n1CC(CO)C3 (stereo not drawn) [Cpd 219, 3-[(1E)-3-1H-imidazol-1-yl-prop-1-en-1-yl]-12,13-(2-hydroxymethyl-propan-1,3-yl)-6,7,12,13-tetrahydro-5-oxo-5H-indolo[2,3-a]pyrrolo[3,4-c]carbazole]"
11,0.015,"O=C1NCc2c1c1c3ccccc3n3c1c1c2c2ccccc2n1CC(CO)(CO)C3 [Cpd 27, 12,13-(2,2-bis-hydroxymethyl-propan-1,3-yl)-6,7,12,13-tetrahydro-5-oxo-5H-indolo[2,3-a]pyrrolo[3,4-c]carbazole]"
12,0.041,"O=C1NC(=O)c2c1c1c3ccccc3n3c1c1c2c2ccccc2n1CC(OC(=O)N1CCN(CCN2CCCC2=O)CC1)CC3 (stereo not drawn) [Cpd 57, 12,13-[2-({4-[2-(2-oxo-pyrrolidin-1-yl)ethyl]piperazin-1-yl}carbonyloxy)-butan-1,4-yl]-12,13-dihydro-5,7-dioxo-6H-indolo[2,3-a]pyrrolo[3,4-c]carbazole]"
13,0.069,"CN(C)CCNC(=O)OCC1(O)Cn2c3ccccc3c3c4c(c5c6ccccc6n(c5c32)C1)C(=O)NC4 (stereo not drawn) [Cpd 173, 12,13-{2-hydroxy-2-[(2-dimethylamino-ethyl)carbamoyloxymethyl]-propan-1,3-yl}-6,7,12,13-tetrahydro-5-oxo-5H-indolo[2,3-a]pyrrolo[3,4-c]carbazole]"
14,> 0.2,"CN1CCN(CCCNC(=O)OC2CCCn3c4ccccc4c4c5c(c6c7ccccc7n(c6c43)C2)C(=O)NC5=O)CC1 (stereo not drawn) [Cpd 116, 12,13-(2-{[3-(4-methyl-piperazin-1-yl)prop-1-yl]carbamoyloxy}-pentan-1,5-yl)-12,13-dihydro-5,7-dioxo-6H-indolo[2,3-a]pyrrolo[3,4-c]carbazole]"
15,0.027,"O=C(NCc1ccncc1)OC1Cn2c3ccccc3c3c4c(c5c6ccccc6n(c5c32)CC1O)C(=O)NC4=O (stereo not drawn) [Cpd 89, 12,13-{2-[(pyridin-4-yl-methyl)carbamoyloxy]-3-hydroxy-butan-1,4-yl}-12,13-dihydro-5,7-dioxo-6H-indolo[2,3-a]pyrrolo[3,4-c]carbazole]"
16,0.022,"O=C1NC(=O)c2c1c1c3ccccc3n3c1c1c2c2ccccc2n1C/C=C\C3 [Cpd 1, 12,13-(but-2-en-1,4-yl)-12,13-dihydro-5,7-dioxo-6H-indolo[2,3-a]pyrrolo[3,4-c]carbazole]"
17,0.063,"O=C1NC(=O)c2c1c1c3ccccc3n3c1c1c2c2ccccc2n1CC(O)(C(=O)NC1CCOC1=O)C(O)C3 (stereo not drawn) [Cpd 122, 12,13-{2-[(2-oxo-tetrahydro-furan-3-yl)carbamoyl]-2,3-dihydroxy-butan-1,4-yl}-12,13-dihydro-5,7-dioxo-6H-indolo[2,3-a]pyrrolo[3,4-c]carbazole]"
18,0.084,"O=C(NCCCn1ccnc1)OCC1(O)Cn2c3ccccc3c3c4c(c5c6ccccc6n(c5c32)C1)C(=O)NC4 (stereo not drawn) [Cpd 152, 12,13-{2-hydroxy-2-[(3-1H-imidazol-1-yl-prop-1-yl)carbamoyloxymethyl]-propan-1,3-yl}-6,7,12,13-tetrahydro-5-oxo-5H-indolo[2,3-a]pyrrolo[3,4-c]carbazole]"
19,0.008,"O=C1NC(=O)c2c1c1c3cc(Br)ccc3n3c1c1c2c2ccccc2n1CC(O)CC3 (stereo not drawn) [Cpd 31, 3-bromo-12,13-(2-hydroxy-butan-1,4-yl)-12,13-dihydro-5,7-dioxo-6H-indolo[2,3-a]pyrrolo[3,4-c]carbazole]"
20,0.284,"CN1CCC(NCc2ccc3c(c2)c2c4c(c5c6ccccc6n6c5c2n3CC(O)C(O)C6)CNC4=O)CC1 (stereo not drawn) [Cpd 195, 3-[(1-methyl-piperidin-4-yl)aminomethyl]-12,13-(2,3-dihydroxy-butan-1,4-yl)-6,7,12,13-tetrahydro-5-oxo-5H-indolo[2,3-a]pyrrolo[3,4-c]carbazole]"
21,0.044,"O=C(NCCCn1ccnc1)OC1Cn2c3ccccc3c3c4c(c5c6ccccc6n(c5c32)CC1O)C(=O)NC4=O (stereo not drawn) [Cpd 91, 12,13-{2-[(3-imidazol-1-yl-prop-1-yl)carbamoyloxy]-3-hydroxy-butan-1,4-yl}-12,13-dihydro-5,7-dioxo-6H-indolo[2,3-a]pyrrolo[3,4-c]carbazole]"
